Common to all, as to assay type: cell-based
The test system of assay [1] is S. aureus (UAMS-1625 strain). The assay is described as follows: MIC by broth microdilution (CLSI) against S. aureus. As to conditions: Staphylococcus aureus, 20 h, read-out: In vitro activity (MIC) S. aureus. Here is the method:
(§1) MIC values were determined by broth microdilution method according to the CLSI guideline. Unless otherwise mentioned, MIC against A. baumannii was performed in RPMI medium supplemented with 10% FCS. MIC against M. abscessus was performed in Middlebrook 7H9 broth supplemented with Middlebrook ADC growth supplement (10%). All other MIC were performed in standard cation adjusted Mueller Hinton broth, supplemented with Middlebrook ADC growth supplement (5%) for the slow growing mycobacteria (M. xenopi, M. kansasii and M. avium).
(§2) The following procedure applies to all species tested, except for M. xenopi. From a fresh culture plate (from overnight to several days depending on the bacteria), cells were resuspended in 0.9% (w/v) saline solution and bacterial inoculum was prepared in the respective testing medium with 5×10^5 CFU/mL. For M. xenopi, the inoculum was prepared from a fresh liquid culture (7H9+ADC). The appropriate volumes of a 10 mg/mL compound solution were directly dispensed in the 96-well assay plate using a digital dispenser to create two-fold dilution series from 32 to 0.002 μg/mL final concentration for A. baumannii and S. aureus; from 16 to 0.016 μg/mL for M. abscessus and M. avium; and from 1 to 6×10^−5 μg/mL for M. kansasii and M. xenopi. 100 μL of bacterial suspension was finally added to the compounds. Plates were covered and incubated without shaking at 35° C. for 20 hours for A. baumanii and S. aureus; at 30° C. for 4 days for M. abscessus; and at 37° C. for 7 days (at least) for M. kansasii (covered with aluminum foil to avoid light exposure), M. avium and M. xenopi. Every experiment contained an antibiotic as quality control. MIC was determined visually as the lowest concentration of a compound that prevents visible growth of the bacteria.
(§3) The in vitro activity of compounds described herein was determined against S. aureus (UAMS-1625 strain), A. baumannii (HUMC1 strain), M. abscessus (ATCC 19977), M. kansasii (ATCC12478), M. avium (ATCC25291), and M. xenopi (ATCC19250).
A general note: Dilution methods test growth across graded concentrations, often in twofold steps.

The subject of assay [2] is A. baumannii (HUMC1 strain). The assay is described as follows: MIC by broth microdilution (CLSI) against A. baumannii. As to conditions: Acinetobacter baumannii, RPMI medium supplemented with 10% FCS, 35° C. for 20 hours, read-out: In vitro activity (MIC) A. baumannii. As to the method:
as §1, §2, §3

Assay [3] has as its system M. abscessus (ATCC 19977). In words: MIC by broth microdilution (CLSI) against M. abscessus. As to conditions: Mycobacteroides abscessus. Here is the method: as §1, §2, §3
Assay [4] concerns M. kansasii (ATCC12478). In words: MIC by broth microdilution (CLSI) against M. kansasii. As to conditions: Mycobacterium kansasii, 168 h, cation adjusted Mueller Hinton broth + ADC (5%), 37° C. for 7 days (at least), read-out: In vitro activity (MIC) M. kansasii. As to the method:
as §1, §2, §3

Assay [5] relates to M. xenopi (ATCC19250). The assay is described as follows: MIC by broth microdilution (CLSI) against M. xenopi. As to conditions: Mycobacterium xenopi, 168 h, cation adjusted Mueller Hinton broth + ADC (5%), 37° C. for 7 days (at least), read-out: In vitro activity (MIC) M. xenopi. Here is the method:
as §1, §2, §3

In assay [6] the test system is M. avium (ATCC25291). In words: MIC by broth microdilution (CLSI) against M. avium. As to conditions: Mycobacterium avium, 168 h, cation adjusted Mueller Hinton broth + ADC (5%), 37° C. for 7 days (at least), read-out: In vitro activity (MIC) M. avium. Here is the method: as §1, §2, §3
The mark [7] stands for this setting: ATCC19977, 96 h, ATCC 19977, Middlebrook 7H9 broth + ADC (10%), 30° C. for 4 days, read-out: In vitro activity (MIC) M. abscessus.

Our source for the MIC values is US20260098046A1, “RIFABUTIN ANALOGS FOR THE TREATMENT OF DISEASE” (BIOVERSYS AG, priority 2022, published 2026).

In general, MIC refers to the lowest concentration found to suppress growth.

Values after ≈ are worked out from the molar mass of the structure shown. Like-named read-outs stand apart in the source and are kept apart here.

Turning to `COc1ccc2cc(-c3cn(CC(=O)O[C@H]4[C@H](C)[C@H](O)[C@H](C)[C@@H](O)[C@@H](C)/C=C/C=C(/C)C(=O)NC5=C6NC7(CCN(CC(C)C)CC7)N=C6c6c(c(O)c(C)c7c6C(=O)[C@@](C)(O/C=C/[C@H](OC)[C@H]4C)O7)C5=O)nn3)ccc2c1` [Compound 6], the MIC in assay [1] came to 8 µg/mL (≈ 7.47 µM); in assay [2], 1 µg/mL (≈ 0.934 µM); in assay [3] (setting [7]), 0.25 µg/mL; in assay [4], 2 ng/mL; in assay [5], 0.03 µg/mL; in assay [6], 0.06 µg/mL.

Take `CO[C@H]1/C=C/O[C@@]2(C)Oc3c(C)c(O)c4c(c3C2=O)C2=NC3(CCN(CC(C)C)CC3)NC2=C(NC(=O)/C(C)=C\C=C\[C@H](C)[C@H](O)[C@@H](C)[C@@H](O)[C@@H](C)[C@H](OC(=O)Cn2cc(-c3ccccn3)nn2)[C@@H]1C)C4=O` [Compound 8]: the MIC in assay [1] is 0.03 µg/mL (≈ 0.0303 µM); in assay [2] it was not above 0.002 µg/mL; in assay [3] (setting [7]), 0.25 µg/mL; in assay [4], 4 ng/mL; in assay [5], 0.06 µg/mL; in assay [6], 0.06 µg/mL.

As to `CO[C@H]1/C=C/O[C@@]2(C)Oc3c(C)c(O)c4c(c3C2=O)C2=NC3(CCN(CC(C)C)CC3)NC2=C(NC(=O)/C(C)=C\C=C\[C@H](C)[C@H](O)[C@@H](C)[C@@H](O)[C@@H](C)[C@H](OC(=O)Cn2cc(CCc3ccccc3)nn2)[C@@H]1C)C4=O` [Compound 9], the minimum inhibitory concentration (MIC) in assay [1] is 0.5 µg/mL (≈ 0.491 µM); in assay [2], 0.03 µg/mL (≈ 0.0295 µM); in assay [3] (setting [7]) it was 0.25 µg/mL; in assay [4], 2 ng/mL; in assay [5], 0.03 µg/mL; in assay [6], 0.06 µg/mL.

On to `CO[C@H]1/C=C/O[C@@]2(C)Oc3c(C)c(O)c4c(c3C2=O)C2=NC3(CCN(CC(C)C)CC3)NC2=C(NC(=O)/C(C)=C\C=C\[C@H](C)[C@H](O)[C@@H](C)[C@@H](O)[C@@H](C)[C@H](OC(=O)Cn2cc(CN(C)Cc3ccccc3)nn2)[C@@H]1C)C4=O` [Compound 12], for which the MIC in assay [1] is 0.125 µg/mL (≈ 0.119 µM); in assay [2] it was 0.008 µg/mL (≈ 0.00764 µM); in assay [3] (setting [7]), 0.25 µg/mL; in assay [4], 4 ng/mL; in assay [5], 0.03 µg/mL; in assay [6], 0.03 µg/mL.

For `CO[C@H]1/C=C/O[C@@]2(C)Oc3c(C)c(O)c4c(c3C2=O)C2=NC3(CCN(CC(C)C)CC3)NC2=C(NC(=O)/C(C)=C\C=C\[C@H](C)[C@H](O)[C@@H](C)[C@@H](O)[C@@H](C)[C@H](OC(=O)Cn2cc(C3CCCCC3)nn2)[C@@H]1C)C4=O` [Compound 26], the MIC in assay [1] was found to be 0.125 µg/mL (≈ 0.125 µM); in assay [2], 0.016 µg/mL (≈ 0.0161 µM); in assay [3] (setting [7]) it was 0.25 µg/mL; in assay [4], 2 ng/mL; in assay [5], 0.03 µg/mL; in assay [6], 0.03 µg/mL.

Consider `CO[C@H]1/C=C/O[C@@]2(C)Oc3c(C)c(O)c4c(c3C2=O)C2=NC3(CCN(CC(C)C)CC3)NC2=C(NC(=O)/C(C)=C\C=C\[C@H](C)[C@H](O)[C@@H](C)[C@@H](O)[C@@H](C)[C@H](OC(C)=O)[C@@H]1C)C4=O` [Rifabutin, rifabutin], for which the MIC in assay [1] is 0.016 µg/mL (≈ 0.0189 µM); in assay [2], not above 0.002 µg/mL; in assay [3] (setting [7]), 8 µg/mL; in assay [3] (ATCC19977, tested M. abscessus strains, read-out: MIC value on M. abscessus) it was 8 µg/mL (≈ 9.44 µM); in assay [4] it was 1 ng/mL; in assay [5] it was 0.03 µg/mL. In assay [6], the MIC turned out to be 0.125 µg/mL.
